Measured values as given in patent US8772227B2, “Glucosamine pro-drug” (priority 2011, dated 2014).

Key:
[1] = tested on: adjuvant arthritis caused by Mycobacterium butyricum; test: Efficacy against adjuvant arthritis; format: in vivo; settings: for preventing effect on emergence of adjuvant arthritis: daily doses from day 0, GlcN HCl 90 mg, GV-GlcN 30 mg glucosamine equivalent, FIG. 6; for paw thickness after treatment of established adjuvant arthritis: four days of daily doses from day 14, GlcN 90 mg/kg, GV-GlcN 30 mg/kg GlcN equivalent, FIG. 7
Procedure: Under anesthesia, rats were injected with 0.2 ml of 50 mg/ml Mycobacterium butyricum suspended in squalene in the base of the tail (day 0). Their paw thickness was measure daily. Within 12-14 days significant increases in paw thickness were noticed, indicative of the emergence if adjuvant arthritis. Repeated daily doses of drugs were administered either right after the time of Mycobacterium injection (to prevent emergence of arthritis) or after the appearance of arthritis (to treat arthritis). Animals were monitored for their arthritis status during the entire length of the experiment.
On day zero, Mycobacterium butyricum is injected to all rats along with daily doses of glucosamine, GV-GlnN or placebo. The placebo group develops severe AA but not the ones that received either treatment. Upon discontinuation of the treatments, AA emerges (FIG. 6).

[2] = Chemical stability (60° C. oven for 48 h); format: physicochemical; settings: 60° C. for 48 h; <96% considered unstable
Procedure: Compounds were transferred into transparent glass vials and placed in 60° C. oven for 48 h. Compound with <96% stability are considered unstable.

[3] = Absorption through everted rat gut; format: in vitro ADME
Procedure: (§1) Pro-drugs were incubated for 2 h with homogenized rat stomach or intestine while the pH is kept at 1.0 or 7.4, respectively. Samples are taken at 30 min interval for the analysis of the pro-drug and GlcN. This procedure was used as a prerequisite to further tests described in Examples 6, 7 and 8. A compound with low stability under this condition was decided to be unsuitable for further test. […] Everted rat gut sacks are immersed in 80 μg/mL (GlcN equivalent) of GlucN HCl or GV-GluN HCl solution. The appearance of glucosamine each compound inside the sack (serosal) was measured. […] Gly-Val-COO-GlcN is GV-GlycN.
A mid line incision was made in the anesthetised rat abdomen, the intestine was exposed and five 10 cm segments of the jejunum are cut. In ice cold Krebs Henseleit buffer, the intestinal content are removed and each segment are everted over a glass rod, tied from one side, a polyethylene tube is inserted into the other side and tied. The segments are filled with buffer and incubated in a perfusion apparatus containing oxygenated Krebs Henseleit buffer at 37° C. The test compound was added to the mucosal (outer surface of the everted gut) and serial samples were collected from both sides. The percent of the movement from outside (mucosal) to inside (serosal) was measured and compared (FIG. 4). […]

[4] = Stability in the gut (incubation with homogenized rat stomach or intestine); format: in vitro ADME; settings: incubated with homogenized rat stomach (pH 1.0) or intestine (pH 7.4); read-out: t1/2 of decomposition in the presence of rat gut
Procedure: as §1

[5] = Bioavailability in the rat (plasma GlcN AUC after oral dose); format: in vivo
Procedure: Prodrugs or GlcN HCl or sulphate were administered to rats in single oral doses equivalent to a fix amount of GlcN. Plasma GlcN concentrations were measured using HPLC in serial sample collected over a period of time. The areas under plasma-concentration-time curves (AUC or relative bioavailability) were calculated and compared (FIGS. 5 and 5a).

[6] = oral administration, reference (23); cited from earlier work

Structure (SMILES)	preventing effect on emergence of adjuvant arthritis [1]	paw thickness after treatment of established adjuvant arthritis [1]	paw thickness after treatment of established adjuvant arthritis ([1]; listed as GlcN HCl)	physicochemical stability (percent stable) [2] [%]	stability after exposure to the gut (no conversion into glucosamine) ([3]; 60 minutes exposure, FIG. 4)	transport across everted rat gut ([3]; mucosal to serosal) [%]	half-life [4] [h]	paw thickness after treatment of established adjuvant arthritis ([1]; listed as GV-GluN)	area under the plasma glucosamine concentration-time curve compared with GlcN ([5]; 110 mg/kg (GlcN equivalent), FIG. 5A, n=3-5/group)	mean AUC (bioavailability) of GlcN in rat plasma compared with GlcN HCl ([5]; oral, 110 mg GlcN equivalent, FIG. 5, AUC(0-4))	AUC of GlcN after oral HCl versus sulphate salt [6]
N[C@H]1C(O)O[C@H](CO)[C@@H](O)[C@@H]1O (stereo partly shown) [GlcN, Glucosamine]	prevent the disease	significantly reduce the paw thickness	Significant (p>0.05) reduced paw thickness	–	–	–	–	–	–	–	–
CC(C)C(NC(=O)CN)C(=O)OCC1OC(O)C(N)C(O)C1O (stereo not shown) [GV-GlcN, (5-amino-3,4,6-trihydroxyoxan-2-yl)methyl 2-(2-aminoacetamido)-3-methylbutanoate]	prevent the disease	significantly reduce the paw thickness	–	> 96	greater than 96%	~80	> 16	Significant (p>0.05) reduced paw thickness	significantly greater than GlcN	significantly and substantially greater	–
N[C@H]1C(O)O[C@H](CO)[C@@H](O)[C@@H]1O.N[C@H]1C(O)O[C@H](CO)[C@@H](O)[C@@H]1O.O=S(=O)(O)O (stereo partly shown) [GlcN sulfate]	–	–	–	–	–	–	–	–	–	–	equal AUC values
